{
  "source": "paper PMC3002971",
  "about": "“A Universal Approach to Eliminate Antigenic Properties of Alpha-Gliadin Peptides in Celiac Disease” (PLoS ONE, 2010)",
  "key": {"[1]": {"system": "DQ2-Glia-α1 specific T cell clones", "assay": "T cell proliferation assay, DQ2-Glia-α1 specific T cell clone", "format": "cell-based, human", "parameters": "key: ± = 100 times reduced T cell stimulation compared to the ‘canonical’ epitope; - = 1000 times reduced T cell stimulation compared to the ‘canonical’ epitope", "conditions": "3H-thymidine proliferation, triplicate; deamidated 14- to 17-mer peptides, antigen 1–10 µg/ml; stimulation compared to canonical epitope", "experimental": "(§1) Gluten specific T cell clones were generated from small intestinal biopsies of celiac disease patients as described before, [11], [12]. All patients signed an informed consent form which was approved by the hospital ethics committee. Proliferation assays were performed in triplicate in 150 µl Iscove's Modified Dulbecco's Medium (Bio Whittaker, Verviers, Belgium) with 10% pooled normal human serum in 96 well flat-bottom plates using 2×10^4 gluten specific T cells stimulated with […] irradiated HLA-DQ2-matched allogeneic peripheral blood mononuclear cells (3000 rad) in the presence or absence of antigen (1–10 µg/ml), [11], [12]. After 2 days ^3H-thymidine (0.5 µCi/well) was added to the cultures, and 18–20 hours thereafter the cells were harvested. ^3H-thymidine incorporation in the T cell DNA was determined with a liquid scintillation counter (1205 Betaplate Liquid Scintillation Counter, LKB Instruments, Gaithersburg, MD). A binding assay was performed as described previously."}, "[2]": {"system": "DQ2-Glia-α2 specific T cell clones", "assay": "T cell proliferation assay, DQ2-Glia-α2 specific T cell clone", "format": "cell-based, human", "parameters": "key: ± = 100 times reduced T cell stimulation compared to the ‘canonical’ epitope; - = 1000 times reduced T cell stimulation compared to the ‘canonical’ epitope", "conditions": "3H-thymidine proliferation, triplicate; deamidated 14- to 17-mer peptides, antigen 1–10 µg/ml; stimulation compared to canonical epitope", "experimental": "as §1"}, "DQ8-Glia-α1 T cell clone": {"system": "DQ8-Glia-α1 T cell clone", "assay": "T cell proliferation assay, DQ8-Glia-α1 T cell clone", "format": "cell-based, human", "parameters": "key: ± = 100 times reduced T cell stimulation compared to the ‘canonical’ epitope; - = 1000 times reduced T cell stimulation compared to the ‘canonical’ epitope", "conditions": "3H-thymidine proliferation, triplicate; deamidated peptides, antigen 1–10 µg/ml; stimulation compared to canonical epitope", "experimental": "as §1"}, "[3]": {"conditions": "cited from earlier work", "excerpt": "In addition to the canonical epitope motifs, a large series of sequence variants with one or two amino acid substitutions were detected ( Tables 2 , 3 , 4 , 5 ). The large majority of the Gli-B2 gliadins contained sequence variants of the DQ2-Glia-α1, DQ2-Glia-α2, and DQ2-Glia-α3 epitopes with two amino acid substitutions. Furthermore, Gli-A2 transcripts harbored a proline to serine substitution at position 8 (p8) of the DQ2-Glia-α2 epitope and a sequence variant (QGSFRP(S/F)QQN, amino acid substitution in bold) of the DQ8-Glia-α1 epitopes. Importantly, the 33-mer peptide ([…] ..."}, "T cell": {"system": "T cell", "conditions": "cited from earlier work", "excerpt": "Many gluten peptides with T cell stimulatory properties have now been identified. Such peptides have been found in wheat α-, γ-, and ω-gliadins as well as in low molecular weight (LMW) and high molecular weight (HMW) glutenins [8]–[14]. […] An α-gliadin derived 33-mer peptide (amino acid sequence […]) was identified that encodes six partially o ..."}},
  "data": [
    {"substance": "QPQPFP-PELPYPQTQP [Peptide 15]", "values": [
      {"measurement": "Glia-α1 T cell clone", "setting": "[1]", "value": "-"},
      {"measurement": "Glia-α2 T cell clone", "setting": "[2]", "value": "-"}
    ]},
    {"substance": "LGEGFFQPSQENP [Peptide 20]", "values": [
      {"measurement": "DQ8-Glia-α1 T cell clone", "setting": "DQ8-Glia-α1 T cell clone", "value": "-"}
    ]},
    {"substance": "LQLQPFPQPQLPYPQPQLPYPQPQLPYPQPQPF [33-mer peptide]", "values": [
      {"measurement": "resistance to degradation in the gastrointestinal tract", "setting": "[3]", "value": "highly resistant to degradation"},
      {"measurement": "T cell stimulatory properties", "setting": "T cell", "value": "very potent T cell stimulatory properties"}
    ]}
  ]
}
